According to US12428456B2, “Peptide directed protein knockdown” (University of British Columbia, priority 2012, dated 2025):
Where two headings read alike, the source gives them in different places.

Assays:
[1] = test system: cortical neurons; type: cell-based; conditions: H2O2 300 μM 30 min
Experimental: Primary culture of cortical neurons. Dissociated cultures of rat cortical neurons were prepared from Sprague Dawley rat embryos collected from euthanized mothers 18 days after fertilization as previously described^35. Briefly, hippocampi and cerebral cortices were extracted from embryos and incubated for 30 min in 0.25% trypsin-EDTA. Digested tissues were dissociated by trituration and plated on poly-D-lysine-coated (Sigma, P7280) plates. Plating medium consisted of Neurobasal Media (Invitrogen, 21103-049) supplemented with B27 (Invitrogen, 17504044), glutamic acid (Sigma, G8415) and GlutaMax (Invitrogen, 35050-061). After 2 days, 2/3 of the media was replaced with fresh Neurobasal feeding media consisting of Neurobasal Media, B27 and GlutaMax. Cultures were maintained at 37° C. in a humidified 5% CO2 atmosphere. […]
Assessment of neuronal death. Cytotoxic damage of primary neuron cultures was assessed by measuring LDH released into culture media as previously described^38. […] Peptide toxicity was assessed by treating neurons with 25 μM synthetic peptide or 200 μM recombinant peptide for 24 hrs. […] The amount of LDH in the medium was determined using a LDH cytotoxicity detection kit (Sigma, TOX7) according to the manufacturer's instructions. The absorbance at 490 nm was determined using a microplate reader (μQuant, Bio-TEK instruments), which was adjusted by background reading deduction.

[2] = biological target: T1, DAPK1 (Rattus norvegicus, UniProt F1LNN8); experiment: Knockdown of native DAPK1 in cultured cortical neurons, NMDA stimulation (immunoblot); type: cell-based; conditions: synthetic peptide 25 μM, prior to and during NMDA
T1 construct: decreased the level of endogenous DAPK1 in cultured cortical neurons following NMDA treatment; endogenous in cells; host or cells: primary rat cortical neurons (E18, 14-18 DIV)
Experimental: Cell culture, transfection and treatments. HEK293 cells and COS7 cells were cultured in DMEM (Sigma, D6429-24X500ML) supplemented with 10% Fetal Bovine Serum (Invitrogen, 12483020). Cells were grown to 80% confluence in 6-well plates before transiently transfected with Lipofectamine 2000 (Invitrogen, 11668019), as according to the manufacturer's protocols. Cells were transfected for either 24 or 48 hours at 37° C. before harvesting for biochemical analyses. For experiments involving TAT or His-TAT peptides, unless otherwise specified, peptides were added 1 hour prior to NMDA insult.
Primary culture of cortical neurons. Dissociated cultures of rat cortical neurons were prepared from Sprague Dawley rat embryos collected from euthanized mothers 18 days after fertilization as previously described^35. Briefly, hippocampi and cerebral cortices were extracted from embryos and incubated for 30 min in 0.25% trypsin-EDTA. Digested tissues were dissociated by trituration and plated on poly-D-lysine-coated (Sigma, P7280) plates. Plating medium consisted of Neurobasal Media (Invitrogen, 21103-049) supplemented with B27 (Invitrogen, 17504044), glutamic acid (Sigma, G8415) and GlutaMax (Invitrogen, 35050-061). After 2 days, 2/3 of the media was replaced with fresh Neurobasal feeding media consisting of Neurobasal Media, B27 and GlutaMax. Cultures were maintained at 37° C. in a humidified 5% CO2 atmosphere. Mature neurons (14-18 days in vitro (DIV)) were used for experiments.
(§1) Immunoblotting. Immunoblotting assays were carried out as previously described^36. Briefly, proteins were extracted from neurons using a lysis buffer composed of 150 mM NaCl, 50 mM Tris, pH 7.4, 0.1% SDS, 1% NP-40, 0.5% sodium deoxycholate, 1 mM EDTA, 1 mM Na3VO4, and proteinase inhibitor mixture (Thermo Fisher, PI78442). Samples were separated on 10% SDS-PAGE gels, transferred to polyvinylidene difluoride (PVDF) membrane, and immunoblotted with respective antibodies. Blots were enhanced with chemiluminescence detection reagent kit (Fisher, 32106) and visualized with Bio-Rad imager and Quantity One software. Signal intensities from each band was quantified with Bio-Rad Image Lab software, and the bands were analyzed relative to their controls from the same membrane and experiment.
Cellular fractionation. Cytoplasm/nuclei fractionation was performed on cultured cortical neurons (6.0*10^6 cells/100 mm dish). Briefly, cells were washed with ice cold PBS and rocked in lysis buffer for 30 min. Cells were then collected and centrifuged to obtain a rough cytoplasmic and nuclear fraction. Supernatant was collected and further centrifuged to obtain purified cytosolic fraction. The original pellet was washed and vortexed to obtain a nuclear lysis. Mitochondrial fractionation was performed as described in the Pierce Mitochondria Isolation Kit for Cultured Cells (Thermo Scientific, 89874) user guide. Purity was assessed by immunoblotting for the presence of LB1 (nucleus only), HSP90 (cytosol only) and VDAC1 (mitochondria only).

[3] = test system: rat middle cerebral artery occlusion focal ischemia model; experiment: Ischemic brain damage, rat MCAO focal ischemia model (H&E staining); type: in vivo; conditions: 10 mg/kg i.v., 60 min MCAO
Experimental: (§2) Middle cerebral arterial occlusion (MCAO). All animal experiments were performed according to protocols approved by the University of British Columbia Committee on Animal Care. Adult naïve male Sprague-Dawley rats (300-350 g, Charles River) were group housed (3-4 animals/cage) in 12 hr:12 hr light-dark cycles and had free access to rat pellet chow and water prior to surgery. Reversible MCAO with suture-insertion method was performed as described previously^37. Briefly, a nylon suture with a blunted tip was entered through the right external carotid artery of anesthetized rats and advanced to the right internal carotid artery until the right MCA was occluded. After 60 min of occlusion, the rat was reanesthetized to facilitate the removal of the occlusion. Body temperature was maintained at between 36.5 and 37.5° C. throughout the surgical procedure with a heating pad. Peptides (10 mg/kg) or vehicle control (saline; 1 ml/kg) was injected via the jugular vein. Rats were then sewn up and allowed to recover until tissue collection.
Hematoxylin & Eosin (H&E) staining. Slices were mounted and dried on glass slides prior staining. Slides were immersed in Hematoxylin solution (Sigma, MHS1-100ML) for 15 min away from light, followed by 5 min blueing under tap water. Slides were then counterstained with 0.5% Eosin Y (Sigma, E4009-5G) and dipped in ddH2O until the eosin stopped streaking. […]

[4] = biological target: T1, DAPK1; experiment: DAPK1 knockdown in brain, rat MCAO focal ischemia model (immunoblot, immunohistochemistry); type: in vivo; conditions: 10 mg/kg i.v., ischemic vs contralateral side; listed as TATNR2B
Experimental: as §1, §2
Immunohistochemistry. Rats were anesthetized and perfused with double-filtered saline and 4% paraformaldehyde (PFA) in PBS. Brains were collected, immersed in 4% PFA before subjected to cryoprotection by 30% sucrose/PBS. After the brains had sunk, they were flash frozen with dry ice before overnight freezing in −80° C. They were then sliced at […] with a cryostat, and stored in 0.1 μM PB (sodium phosphate dibasic and sodium phosphate monobasic). Prior to staining, slices were washed 3×10 min with 0.1 μM PB, permeablized and blocked in 0.1 μM PB with 1% BSA and 0.2% Triton X-100 for 30 min, and stained with anti-DAPK1 (1:100) at 4° C. for 3 days. They were then washed and stained with Alexa 488 (1:1000) at 4° C. overnight before washing and mounting.

T1 sequence (F1LNN8 1-1430): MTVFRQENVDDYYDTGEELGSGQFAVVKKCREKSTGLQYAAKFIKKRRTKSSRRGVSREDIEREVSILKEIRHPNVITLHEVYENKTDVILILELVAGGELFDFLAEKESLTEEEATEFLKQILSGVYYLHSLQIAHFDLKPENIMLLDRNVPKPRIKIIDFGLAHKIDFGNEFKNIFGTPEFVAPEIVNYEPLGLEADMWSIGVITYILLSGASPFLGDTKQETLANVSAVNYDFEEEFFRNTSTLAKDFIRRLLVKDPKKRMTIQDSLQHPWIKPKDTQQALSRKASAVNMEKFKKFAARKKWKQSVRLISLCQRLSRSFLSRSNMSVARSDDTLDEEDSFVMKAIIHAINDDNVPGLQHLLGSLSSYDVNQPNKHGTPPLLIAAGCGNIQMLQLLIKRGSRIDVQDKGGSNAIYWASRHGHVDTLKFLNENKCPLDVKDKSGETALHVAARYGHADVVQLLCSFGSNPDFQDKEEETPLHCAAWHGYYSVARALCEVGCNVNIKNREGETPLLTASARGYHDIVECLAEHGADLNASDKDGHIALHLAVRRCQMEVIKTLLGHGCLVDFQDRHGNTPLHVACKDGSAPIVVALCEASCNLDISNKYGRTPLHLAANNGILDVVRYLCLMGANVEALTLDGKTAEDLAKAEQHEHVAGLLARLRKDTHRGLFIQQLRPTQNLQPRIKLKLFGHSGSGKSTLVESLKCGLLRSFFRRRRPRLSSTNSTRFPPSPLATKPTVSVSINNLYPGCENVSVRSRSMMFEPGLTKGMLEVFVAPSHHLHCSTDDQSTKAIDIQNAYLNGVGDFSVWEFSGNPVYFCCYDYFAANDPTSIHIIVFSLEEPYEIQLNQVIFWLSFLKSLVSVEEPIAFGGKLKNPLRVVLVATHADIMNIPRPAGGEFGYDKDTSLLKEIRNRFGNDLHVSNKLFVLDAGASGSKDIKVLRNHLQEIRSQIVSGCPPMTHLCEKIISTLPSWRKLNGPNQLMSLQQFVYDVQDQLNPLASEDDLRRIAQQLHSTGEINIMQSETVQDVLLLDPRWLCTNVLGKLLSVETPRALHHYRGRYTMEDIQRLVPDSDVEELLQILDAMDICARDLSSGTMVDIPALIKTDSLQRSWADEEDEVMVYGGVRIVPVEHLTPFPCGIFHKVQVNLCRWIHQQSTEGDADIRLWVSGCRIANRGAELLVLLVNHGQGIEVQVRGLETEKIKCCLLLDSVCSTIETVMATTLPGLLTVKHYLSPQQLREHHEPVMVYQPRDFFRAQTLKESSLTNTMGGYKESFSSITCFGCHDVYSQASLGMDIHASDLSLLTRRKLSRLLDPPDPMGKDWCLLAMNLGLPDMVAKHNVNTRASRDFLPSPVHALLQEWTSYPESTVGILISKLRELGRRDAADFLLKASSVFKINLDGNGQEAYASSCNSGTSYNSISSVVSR

Molecule: N[C@H](CCCP(=O)(O)O)C(=O)O [APV, (2R)-amino-5-phosphonopentanoic acid]
- neuronal death (LDH) normalized to naïve non-treated control (set as 1) ([1]; 50 μM, 12 hours after treatment): 2.16±13.8

Molecule: YGRKKRRQRRRKKNRNKLRRQHSY [TAT-NR2B, CTS-lacking control peptide, reference compound]
- effect on DAPK1 level after NMDA treatment [2]: did not affect DAPK1 levels
- ischemic damage / infarct areas (H&E staining) [3]: partially decreased ischemic damage
- effect on DAPK1 levels in brain tissues (immunoblot) [4]: no obvious change

Molecule: catalase
- neuronal death (LDH) normalized to naïve non-treated control (set as 1) ([1]; catalase added, 12 hours): 1.17±1.76
